Holding throughout (assay): Kinase activity inhibition assay (HTRF TK Kit), selectivity
Format in all cases: biochemical

One assay addresses T1, ITK (Homo sapiens, UniProt Q08881).
T1 construct: purchased Carna 08-181
T1 sequence (Q08881 1-620): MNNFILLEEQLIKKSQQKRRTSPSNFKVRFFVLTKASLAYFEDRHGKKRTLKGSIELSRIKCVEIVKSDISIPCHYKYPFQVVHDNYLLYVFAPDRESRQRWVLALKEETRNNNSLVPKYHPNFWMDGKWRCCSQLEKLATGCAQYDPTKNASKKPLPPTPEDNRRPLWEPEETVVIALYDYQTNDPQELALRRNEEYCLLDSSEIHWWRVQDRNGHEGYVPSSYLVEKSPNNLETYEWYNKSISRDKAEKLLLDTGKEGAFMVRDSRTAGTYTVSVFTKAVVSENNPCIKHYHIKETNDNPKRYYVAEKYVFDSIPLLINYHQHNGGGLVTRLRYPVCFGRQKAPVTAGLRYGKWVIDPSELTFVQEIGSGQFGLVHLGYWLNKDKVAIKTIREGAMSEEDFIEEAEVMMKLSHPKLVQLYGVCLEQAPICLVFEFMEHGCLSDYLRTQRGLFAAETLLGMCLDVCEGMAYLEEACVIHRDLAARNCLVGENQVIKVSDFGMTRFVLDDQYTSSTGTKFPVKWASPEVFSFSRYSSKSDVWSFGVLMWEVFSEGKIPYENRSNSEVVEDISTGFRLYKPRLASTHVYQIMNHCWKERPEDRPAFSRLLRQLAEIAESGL
Summed up: (§1)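 Compounds are serially diluted and incubated with kinase, substrate and ATP at room temperature, the plate having been prepared on ice. Detection reagents are then added for 1 h, and the 665/620 nm fluorescence ratio is converted to percent inhibition for curve fitting.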

The next assay addresses T2, TEC (Homo sapiens, UniProt P42680).
T2 construct: purchased Carna 08-182
T2 sequence (P42680 1-631): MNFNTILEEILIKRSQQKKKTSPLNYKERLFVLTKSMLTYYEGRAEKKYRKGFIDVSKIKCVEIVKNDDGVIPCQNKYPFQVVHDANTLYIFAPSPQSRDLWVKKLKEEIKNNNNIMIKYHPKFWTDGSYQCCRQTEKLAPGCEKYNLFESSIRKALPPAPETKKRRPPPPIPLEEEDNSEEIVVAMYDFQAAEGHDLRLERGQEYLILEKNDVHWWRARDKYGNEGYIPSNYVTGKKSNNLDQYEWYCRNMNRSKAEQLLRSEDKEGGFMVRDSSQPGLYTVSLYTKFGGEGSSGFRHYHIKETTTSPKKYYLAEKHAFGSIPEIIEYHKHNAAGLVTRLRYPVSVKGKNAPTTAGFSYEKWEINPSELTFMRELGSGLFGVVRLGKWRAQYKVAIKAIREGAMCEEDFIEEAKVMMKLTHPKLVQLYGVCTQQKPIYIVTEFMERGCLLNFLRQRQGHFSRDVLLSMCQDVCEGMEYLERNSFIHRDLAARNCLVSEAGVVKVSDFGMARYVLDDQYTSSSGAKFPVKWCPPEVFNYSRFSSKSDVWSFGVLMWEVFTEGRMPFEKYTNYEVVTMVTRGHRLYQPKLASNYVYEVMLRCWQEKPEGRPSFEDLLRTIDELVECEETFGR
The method in brief:
as §1

A further assay concerns the target T3, EGFR (Homo sapiens, UniProt P00533).
T3 construct: purchased Carna 08-115
The method in brief:
as §1

T3 sequence (P00533 669-1210 limits assumed): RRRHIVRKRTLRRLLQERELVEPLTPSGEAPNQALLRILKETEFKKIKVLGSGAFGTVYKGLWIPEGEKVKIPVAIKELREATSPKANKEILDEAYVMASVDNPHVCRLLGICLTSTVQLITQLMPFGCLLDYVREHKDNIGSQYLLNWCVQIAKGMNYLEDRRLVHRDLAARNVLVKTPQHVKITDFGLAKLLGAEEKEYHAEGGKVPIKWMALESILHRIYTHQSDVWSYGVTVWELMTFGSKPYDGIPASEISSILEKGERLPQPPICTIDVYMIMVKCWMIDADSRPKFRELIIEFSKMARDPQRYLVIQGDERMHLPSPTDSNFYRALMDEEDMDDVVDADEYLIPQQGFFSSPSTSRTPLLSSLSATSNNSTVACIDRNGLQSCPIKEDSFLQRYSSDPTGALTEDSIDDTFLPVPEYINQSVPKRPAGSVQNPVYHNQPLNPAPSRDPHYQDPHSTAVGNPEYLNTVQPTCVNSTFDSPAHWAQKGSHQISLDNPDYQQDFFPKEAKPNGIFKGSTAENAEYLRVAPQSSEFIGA

By IC50 is commonly meant the concentration that gives 50% inhibition. As for `COc1ccc(F)cc1C(=O)NCc1ccc(-c2ncc(-c3ccc(C(=O)N4C[C@@H](C)O[C@H](C)C4)cn3)c3[nH]nc(N)c23)cc1` [Example 54, N-(4-(3-amino-7-(5-((2R,6R)-2,6-dimethylmoroholine-4-carbonyl)pyridin-2-yl)-1H-pyrazolo[4,3-c]pyridin-4-yl)benzyl)-5-fluoro-2-methoxybenzamide], the IC50 fell in the range of 50 to 500 nM at ITK, 5 to 50 nM on TEC and 50 to 500 nM on EGFR.
With `COc1ccc(F)cc1C(=O)NCc1ccc(-c2ncc(-c3ccc(P(C)(C)=O)cn3)c3[nH]nc(N)c23)cc1` [Example 56, N-(4-(3-amino-7-(5-(dimethylphosphoryl)pyridin-2-yl)-1H-pyrazolo[4,3-c]pyridin-4-yl)benzyl)-5-fluoro-2-methoxybenzamide], the results for the IC50 at ITK, on TEC and at EGFR were 50 to 500 nM, 5 to 50 nM and 50 to 500 nM, respectively.
As for `COc1ccc(F)cc1C(=O)NCc1ccc(-c2ncc(-c3nc4cnccn4n3)c3[nH]nc(N)c23)cc1` [Example 57, N-(4-(7-([1,2,4]triazolo[1,5-a]pyrazin-2-yl)-3-amino-1H-pyrazolo[4,3-c]pyridin-4-yl)benzyl)-5-fluoro-2-methoxybenzamide], the figures for the half-maximal inhibitory concentration (IC50) on ITK, on TEC and at EGFR were greater than 500 nM, 50 to 500 nM and 50 to 500 nM, respectively.
Take `COc1ccc(F)cc1C(=O)NCc1ccc(-c2ncc(-c3nc4ccccn4n3)c3[nH]nc(N)c23)cc1` [Example 58, N-(4-(7-([1,2,4]triazolo[1,5-a]pyridin-2-yl)-3-amino-1H-pyrazolo[4,3-c]pyridin-4-yl)benzyl)-5-fluoro-2-methoxybenzamide]: the values for the IC50 at ITK, on TEC and on EGFR were greater than 500 nM, 5 to 50 nM and 50 to 500 nM, respectively.
For `COCCOc1ccc(-c2cnc(-c3ccc(CNC(=O)c4cc(F)ccc4OC)cc3)c3c(N)n[nH]c23)nc1` [Example 59, N-(4-(3-amino-7-(5-(2-methoxyethoxy)pyridin-2-yl)-1H-pyrazolo[4,3-c]pyridin-4-yl)benzyl)-5-fluoro-2-methoxybenzamide], in that order: 50 to 500 nM, 5 to 50 nM and 5 to 50 nM.
For `COc1ccc(F)cc1C(=O)NCc1ccc(-c2ncc(-c3ccc(OCCN(C)C)cn3)c3[nH]nc(N)c23)cc1` [Example 60, N-(4-(3-amino-7-(5-(2-(dimethylamino)ethoxy)pyridin-2-yl)-1H-pyrazolo[4,3-c]pyridin-4-yl)benzyl)-5-fluoro-2-methoxybenzamide], in that order: 50 to 500 nM, 5 to 50 nM and 5 to 50 nM.
Taken in the same sequence, the figures for `COc1ccc(F)cc1C(=O)NCc1ccc(-c2ncc(-c3ccc(OCCN4CCOCC4)cn3)c3[nH]nc(N)c23)cc1` [Example 61, N-(4-(3-amino-7-(5-(2-morpholinoethoxy)pyridin-2-yl)-1H-pyrazolo[4,3-c]pyridin-4-yl)benzyl)-5-fluoro-2-methoxybenzamide] were 50 to 500 nM, 5 to 50 nM and 5 to 50 nM.
`COc1ccc(F)cc1C(=O)NCc1ccc(-c2ncc(-c3ccc(OCCN4CCCC4)cn3)c3[nH]nc(N)c23)cc1` [Example 62, N-(4-(3-amino-7-(5-(2-(pyrrolidin-1-yl)ethoxy)pyridin-2-yl)-1H-pyrazolo[4,3-c]pyridin-4-yl)benzyl)-5-fluoro-2-methoxybenzamide]: the IC50 was in the range of 50 to 500 nM on ITK, 50 to 500 nM at TEC and 5 to 50 nM at EGFR.
For `COc1ccc(F)cc1C(=O)NCc1ccc(-c2ncc(-c3ccc(C(C)(C)O)cn3)c3[nH]nc(N)c23)cc1` [Example 65, N-(4-(3-amino-7-(5-(2-hydroxypropan-2-yl)pyridin-2-yl)-1H-pyrazolo[4,3-c]pyridin-4-yl)benzyl)-5-fluoro-2-methoxybenzamide], the results for the IC50 at ITK, at TEC and at EGFR were 50 to 500 nM, 1 to 5 nM and 5 to 50 nM, respectively.
As for `COc1ccc(F)cc1C(=O)NCc1ccc(-c2ncc(-c3ccc(CN4CCCCC4)cn3)c3[nH]nc(N)c23)cc1` [Example 66, N-(4-(3-amino-7-(5-(piperidin-1-ylmethyl)pyridin-2-yl)-1H-pyrazolo[4,3-c]pyridin-4-yl)benzyl)-5-fluoro-2-methoxybenzamide], the IC50 on ITK is 50 to 500 nM; at TEC, 5 to 50 nM; at EGFR, 5 to 50 nM.
On to `COc1ccc(F)cc1C(=O)NCc1ccc(-c2ncc(-c3ccc(CN4CCOCC4)cn3)c3[nH]nc(N)c23)cc1` [Example 67, N-(4-(3-amino-7-(5-(morpholinomethyl)pyridin-2-yl)-1H-pyrazolo[4,3-c]pyridin-4-yl)benzyl)-5-fluoro-2-methoxybenzamide], for which the IC50 on ITK was in the range of 50 to 500 nM; at TEC, 5 to 50 nM; at EGFR it was 5 to 50 nM.
`COc1ccc(F)cc1C(=O)NCc1ccc(-c2ncc(-c3ccc(CN4CCN(C)CC4)cn3)c3[nH]nc(N)c23)cc1` [Example 68, N-(4-(3-amino-7-(5-((4-methylpiperazin-1-yl)methyl)pyridin-2-yl)-1H-pyrazolo[4,3-c]pyridin-4-yl)benzyl)-5-fluoro-2-methoxybenzamide]: the results for the IC50 at ITK, on TEC and on EGFR were 50 to 500 nM, 5 to 50 nM and 5 to 50 nM, respectively.
On to `COc1ccc(F)cc1C(=O)NCc1ccc(-c2ncc(-c3cc4ccccn4n3)c3[nH]nc(N)c23)cc1` [Example 69, N-(4-(3-amino-7-(pyrazolo[1,5-a]pyridin-2-yl)-1H-pyrazolo[4,3-c]pyridin-4-yl)benzyl)-5-fluoro-2-methoxybenzamide], for which the values for the IC50 on ITK, on TEC and at EGFR were 50 to 500 nM, 1 to 5 nM and 5 to 50 nM, respectively.
Taken in the same sequence, the figures for `COc1ccc(F)cc1C(=O)NCc1ccc(-c2ncc(-c3cnn4cccnc34)c3[nH]nc(N)c23)cc1` [Example 70, N-(4-(3-amino-7-(pyrazolo[1,5-a]pyrimidin-3-yl)-1H-pyrazolo[4,3-c]pyridin-4-yl)benzyl)-5-fluoro-2-methoxybenzamide] were greater than 500 nM, 5 to 50 nM and 50 to 500 nM.
Taken in the same sequence, the figures for `COc1ccc(F)cc1C(=O)NCc1ccc(-c2ncc(-c3cc4n(n3)CCN(C)C4)c3[nH]nc(N)c23)cc1` [Example 71, N-(4-(3-amino-7-(5-methyl-4,5,6,7-tetrahydropyrazolo[1,5-a]pyrazin-2-yl)-1H-pyrazolo[4,3-c]pyridin-4-yl)benzyl)-5-fluoro-2-methoxybenzamide] were 50 to 500 nM, 5 to 50 nM and 5 to 50 nM.
For `CCN1CCn2nc(-c3cnc(-c4ccc(CNC(=O)c5cc(F)ccc5OC)cc4)c4c(N)n[nH]c34)cc2C1` [Example 72, N-(4-(3-amino-7-(5-ethyl-4,5,6,7-tetrahydropyrazolo[1,5-a]pyrazin-2-yl)-1H-pyrazolo[4,3-c]pyridin-4-yl)benzyl)-5-fluoro-2-methoxybenzamide], in that order: 50 to 500 nM, 5 to 50 nM and 5 to 50 nM.
For the compound `COc1ccc(F)cc1C(=O)NCc1ccc(-c2ncc(-c3ccc(N4CCN(C)CC4)cn3)c3[nH]nc(N)c23)cc1` [Example 73, N-(4-(3-amino-7-(5-(4-methylpiperazin-1-yl)pyridin-2-yl)-1H-pyrazolo[4,3-c]pyridin-4-yl)benzyl)-5-fluoro-2-methoxybenzamide], the IC50 on ITK is 50 to 500 nM; on TEC it was 5 to 50 nM; on EGFR, 5 to 50 nM.
Consider `COc1ccc(F)cc1C(=O)NCc1ccc(-c2ncc(-c3ccc(N4CCN(C)C[C@@H]4C)cn3)c3[nH]nc(N)c23)cc1` [Example 74, (S)-N-(-4-(3-amino-7-(5-(2,4-dimethylpiperazin-1-yl)pyridin-2-yl) 1H-pyrazolo[4,3-c]pyridin-4-yl)benzyl)-5-fluoro-2-methoxybenzamide], for which the IC50 was 50 to 500 nM on ITK, greater than 500 nM at TEC and 5 to 50 nM at EGFR.

For the origin of these results see EP4741392A1, “1H-PYRAZOLO[4,3-C]PYRIDINE COMPOUND, AND COMPOSITION THEREOF AND USE THEREOF” (Shenzhen TargetRx Co., Ltd., priority 2023, dated 2025).
